From PubChem BioAssay AID2060509 (Molecular Pharmacology Branch, DTP, NCI, 2025)

Test system: 485176-168-R4-J1-PDC spheroids with HUVEC/MSC, viability
Assay: Anticancer human tumor 485176-168-R4-J1-PDC patient-derived pancreatic adenocarcinoma cell line growth inhibition [GQUAD]
Details: for IC50: curve of first compound; for viability, T/C: stronger effect = lower value
Method in brief: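 Multi-cell-type spheroids of tumor cells with HUVEC and mesenchymal stem cells, treated with drug combinations. Concentrations descend in half-log steps from near clinical Cmax, or from 10 microM where Cmax is unknown; viability read-out.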

[1] = second compound 0.0316 µM, first compound 0.0316 µM
[2] = second compound 0.0316 µM, first compound 0.1 µM
[3] = second compound 0.0316 µM, first compound 0.316 µM
[4] = second compound 0.0316 µM, first compound 1 µM
[5] = second compound 0.0316 µM, first compound 3.16 µM
[6] = second compound 0.0316 µM, first compound 10 µM
[7] = second compound 0.1 µM, first compound 0.0316 µM
[8] = second compound 0.1 µM, first compound 0.1 µM
[9] = second compound 0.1 µM, first compound 0.316 µM
[10] = second compound 0.1 µM, first compound 1 µM
[11] = second compound 0.1 µM, first compound 3.16 µM
[12] = second compound 0.1 µM, first compound 10 µM
[13] = second compound 0.316 µM, first compound 0.0316 µM
[14] = second compound 0.316 µM, first compound 0.1 µM
[15] = second compound 0.316 µM, first compound 0.316 µM
[16] = second compound 0.316 µM, first compound 1 µM
[17] = second compound 0.316 µM, first compound 3.16 µM
[18] = second compound 0.316 µM, first compound 10 µM
[19] = second compound 1 µM, first compound 0.0316 µM
[20] = second compound 1 µM, first compound 0.1 µM
[21] = second compound 1 µM, first compound 0.316 µM
[22] = second compound 1 µM, first compound 1 µM
[23] = second compound 1 µM, first compound 3.16 µM
[24] = second compound 1 µM, first compound 10 µM
[25] = second compound 3.16 µM, first compound 0.0316 µM
[26] = second compound 3.16 µM, first compound 0.1 µM
[27] = second compound 3.16 µM, first compound 0.316 µM
[28] = second compound 3.16 µM, first compound 1 µM
[29] = second compound 3.16 µM, first compound 3.16 µM
[30] = second compound 3.16 µM, first compound 10 µM
[31] = second compound 10 µM, first compound 0.0316 µM
[32] = second compound 10 µM, first compound 0.1 µM
[33] = second compound 10 µM, first compound 0.316 µM
[34] = second compound 10 µM, first compound 1 µM
[35] = second compound 10 µM, first compound 3.16 µM
[36] = second compound 10 µM, first compound 10 µM
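Also: spheroids exposed to compounds for seven days before readout.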
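For viability, T/C in this document: percent viability relative to DMSO vehicle control wells as 100%.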

Compound: C#Cc1c(F)ccc2cc(O)cc(-c3ncc4c(N5CC6CCC(C5)N6)nc(OCC56CCCN5CC(F)C6)nc4c3F)c12 (stereo unspecified) + Cc1[nH]c2ccc(F)cc2c1-c1nc2c3cccnc3c3ncccc3c2[nH]1
- IC50 (second compound 0.0316 µM): > 10 µM
- IC50 (second compound 0.1 µM): > 10 µM
- IC50 (second compound 0.316 µM): > 10 µM
- IC50 (second compound 1 µM): > 10 µM
- IC50 (second compound 3.16 µM): > 10 µM
- IC50 (second compound 10 µM): > 10 µM
- viability, T/C [1]: 92.5%
- viability, T/C [2]: 95.7%
- viability, T/C [3]: 91.5%
- viability, T/C [4]: 84.1%
- viability, T/C [5]: 90.3%
- viability, T/C [6]: 89.7%
- viability, T/C [7]: 93%
- viability, T/C [8]: 102%
- viability, T/C [9]: 101%
- viability, T/C [10]: 109%
- viability, T/C [11]: 103%
- viability, T/C [12]: 93.6%
- viability, T/C [13]: 91%
- viability, T/C [14]: 101%
- viability, T/C [15]: 93.4%
- viability, T/C [16]: 107%
- viability, T/C [17]: 99.1%
- viability, T/C [18]: 87%
- viability, T/C [19]: 105%
- viability, T/C [20]: 89.2%
- viability, T/C [21]: 92.4%
- viability, T/C [22]: 81.5%
- viability, T/C [23]: 109%
- viability, T/C [24]: 93%
- viability, T/C [25]: 98.9%
- viability, T/C [26]: 80.9%
- viability, T/C [27]: 105%
- viability, T/C [28]: 97.6%
- viability, T/C [29]: 90.4%
- viability, T/C [30]: 95.3%
- viability, T/C [31]: 96.6%
- viability, T/C [32]: 92%
- viability, T/C [33]: 82.7%
- viability, T/C [34]: 87.8%
- viability, T/C [35]: 85.1%
- viability, T/C [36]: 86.5%

Compound: CC(=O)O[C@H]1C(=O)[C@@]2(C)[C@H]([C@H](OC(=O)c3ccccc3)[C@]3(O)C[C@H](OC(=O)[C@H](O)[C@@H](NC(=O)c4ccccc4)c4ccccc4)C(C)=C1C3(C)C)[C@]1(OC(C)=O)CO[C@@H]1C[C@@H]2O + Cc1[nH]c2ccc(F)cc2c1-c1nc2c3cccnc3c3ncccc3c2[nH]1
- IC50 (second compound 0.0316 µM): < 0.0316 µM
- IC50 (second compound 0.1 µM): < 0.0316 µM
- IC50 (second compound 0.316 µM): < 0.0316 µM
- IC50 (second compound 1 µM): < 0.0316 µM
- IC50 (second compound 3.16 µM): < 0.0316 µM
- IC50 (second compound 10 µM): < 0.0316 µM
- viability, T/C [1]: 29.9%
- viability, T/C [2]: 10.3%
- viability, T/C [3]: 10.7%
- viability, T/C [4]: 10.7%
- viability, T/C [5]: 10.6%
- viability, T/C [6]: 11.5%
- viability, T/C [7]: 29.6%
- viability, T/C [8]: 13.1%
- viability, T/C [9]: 16%
- viability, T/C [10]: 12.4%
- viability, T/C [11]: 12.3%
- viability, T/C [12]: 10%
- viability, T/C [13]: 24.9%
- viability, T/C [14]: 14.4%
- viability, T/C [15]: 14.9%
- viability, T/C [16]: 9.44%
- viability, T/C [17]: 12.5%
- viability, T/C [18]: 11.7%
- viability, T/C [19]: 28.6%
- viability, T/C [20]: 13.2%
- viability, T/C [21]: 12%
- viability, T/C [22]: 13.2%
- viability, T/C [23]: 9.22%
- viability, T/C [24]: 10.8%
- viability, T/C [25]: 24.5%
- viability, T/C [26]: 12.1%
- viability, T/C [27]: 13.4%
- viability, T/C [28]: 12.2%
- viability, T/C [29]: 11.3%
- viability, T/C [30]: 11.8%
- viability, T/C [31]: 28%
- viability, T/C [32]: 9.49%
- viability, T/C [33]: 14.4%
- viability, T/C [34]: 14.4%
- viability, T/C [35]: 11.1%
- viability, T/C [36]: 12.1%

Compound: CCCS(=O)(=O)Nc1ccc(F)c(C(=O)c2c[nH]c3ncc(-c4ccc(Cl)cc4)cc23)c1F + Cc1[nH]c2ccc(F)cc2c1-c1nc2c3cccnc3c3ncccc3c2[nH]1
- IC50 (second compound 0.0316 µM): > 10 µM
- IC50 (second compound 0.1 µM): > 10 µM
- IC50 (second compound 0.316 µM): > 10 µM
- IC50 (second compound 1 µM): > 10 µM
- IC50 (second compound 3.16 µM): > 10 µM
- IC50 (second compound 10 µM): > 10 µM
- viability, T/C [1]: 95%
- viability, T/C [2]: 93.6%
- viability, T/C [3]: 96.1%
- viability, T/C [4]: 94.8%
- viability, T/C [5]: 116%
- viability, T/C [6]: 75.5%
- viability, T/C [7]: 84.8%
- viability, T/C [8]: 102%
- viability, T/C [9]: 87.8%
- viability, T/C [10]: 86.1%
- viability, T/C [11]: 99.1%
- viability, T/C [12]: 71.2%
- viability, T/C [13]: 105%
- viability, T/C [14]: 86.1%
- viability, T/C [15]: 90.7%
- viability, T/C [16]: 82.9%
- viability, T/C [17]: 80.1%
- viability, T/C [18]: 67.2%
- viability, T/C [19]: 87.2%
- viability, T/C [20]: 85.2%
- viability, T/C [21]: 76.7%
- viability, T/C [22]: 84.2%
- viability, T/C [23]: 77.5%
- viability, T/C [24]: 69.5%
- viability, T/C [25]: 104%
- viability, T/C [26]: 88.6%
- viability, T/C [27]: 89%
- viability, T/C [28]: 72.1%
- viability, T/C [29]: 84%
- viability, T/C [30]: 63.5%
- viability, T/C [31]: 84.9%
- viability, T/C [32]: 91%
- viability, T/C [33]: 88.4%
- viability, T/C [34]: 74.9%
- viability, T/C [35]: 66.6%
- viability, T/C [36]: 51.7%
